Laboratory results taken from patent publication US8455466B2, “Vitamin d analogues, compositions comprising said analogues and their use” (Leo Pharma A/S, priority 2002, dated 2013).

Experiments:
rats = test: In vivo calcemic activity in rats (Binderup et al.); design: species or system rat; conditions: Calcitriol = 100%
[1] = test system: bovine parathyroidea cells; test: In vitro PTH secretion in bovine parathyroidea cells; format: cell-based; conditions: cells treated with vitamin D analogues for 60 hours at 37° C.
Procedure: The calcemic activities of the compounds of the present invention were determined in rats in vivo, as previously described (Binderup, L., Bramm, E., Biochem. Pharmacol. 37, 889-895 (1988)). The PTH suppressive effect of the compounds of the present invention was tested in vitro on bovine parathyroidea cells: Fresh bovine parathyroid glands were collected from adult cattle within 20 min of slaughter. From minced parathyroid tissue dispersed parathyroid cells were prepared as previously described (E. M. Brown, S. Hurwitz and G. D Aurbach; Preparation of viable isolated bovine parathyroid cells; Endocrinology, 1976, vol 99, no 6, 1582-1588). Then, the cells were treated with vitamin D analogues for 60 hours at 37° C. and the PTH secretion was determined.

secretion of PTH = conditions: patients; 1α(OH)D3 versus 1,25(OH)2 D3 administered; cited from earlier work

| Compound | In vivo calcemic activity relative to Calcitriol (1,25(OH)2D3) (rats) | In vitro PTH secretion relative to untreated bovine parathyroidea cells (untreated cells as control = 100%) [1] | suppression of the secretion of PTH, compared with 1,25(OH)2 D3 dosing (secretion of PTH) |
| --- | --- | --- | --- |
| 1(S),3(R)-Dihydroxy-9,10-seco-26,27-methano-cholesta-5(Z),7(E),10(19),22(E),24-penta-ene [Compound 6] | 1% | 56% | – |
| C=C1C(=CC=C2CCCC3(C)C2CCC3C(C)C=CC=C(C)C)CC(O)CC1O [Compound 1, 1(S),3(R)-Dihydroxy-9,10-secocholesta-5(Z),7(E),10(19),22(E),24-penta-ene] | <10% ^ | 57% | – |
| C=C1C(=CC=C2CCCC3(C)C2CCC3C(C)C=CC=C(C(F)(F)F)C(F)(F)F)CC(O)CC1O [Compound 25, 1(S),3(R)-Dihydroxy-26,26,26,27,27,27-hexafluoro-9,10-secocholesta-5(Z),7(E),10(19),22(E),24-penta-ene] | 8% | 74% | – |
| C=C1/C(=C\C=C2/CCC[C@]3(C)[C@@H]([C@H](C)CCCC(C)(C)O)CC[C@@H]23)C[C@@H](O)C[C@@H]1O [Calcitriol, 1,25(OH)2D3, reference compound] | 100% | 60% | – |
| C=C1/C(=C\C=C2/CCC[C@]3(C)[C@@H]([C@H](C)CCCC(C)C)CC[C@@H]23)C[C@@H](O)C[C@@H]1O [1α(OH)D3] | – | – | no significant difference |
| C=C1C(=CC=C2CCCC3(C)C2CCC3C(C)C=CC=C(C)C)CC(O)CC1O [Compound 3, 1(S),3(R)-Dihydroxy-9,10-seco-20(S)-cholesta-5(Z),7(E),10(19), 22(E),24-penta-ene] | 1% | 61% | – |

Now from value to compound, other results behind:

| In vivo calcemic activity relative to Calcitriol (1,25(OH)2D3) (rats) | Compound | In vitro PTH secretion relative to untreated bovine parathyroidea cells (untreated cells as control = 100%) [1] | suppression of the secretion of PTH, compared with 1,25(OH)2 D3 dosing (secretion of PTH) |
| --- | --- | --- | --- |
| <0.5% ^ | C=C1C(=CC=C2CCCC3(C)C2CCC3C(C)C=CC=C(Br)Br)CC(O)CC1O [Compound 27, 1(S),3(R)-Dihydroxy-20(R)-(4,4-dibromo-1,3-butadien-1-yl)-9,10-seco-pregna-5(Z),7(E),10(19)-triene] | 65% | – |
| <0.5% ^ | 1(S),3(R)-Dihydroxy-9,10-seco-26,27-methano-20(S)-cholesta-5(Z),7(E),10(19),22(E),24-penta-ene [Compound 7] | 65% | – |
| 1% | C=C1/C(=C\C=C2/CCC[C@]3(C)[C@@H]([C@H](C)/C=C/C=C(CC)CC)CC[C@@H]23)C[C@@H](O)C[C@@H]1O [Compound 28, 1(S),3(R)-Dihydroxy-26,27-dimethyl-9,10-secocholesta-5(Z),7(E),10(19),22(E),24-penta-ene] | 62% | – |
